Consider 1 cell line from the supplement of paper PMC10307832.

Compound in the test “Wnt-C59 + Lapatinib”: CC1=NC=CC(=C1)C2=CC=C(C=C2)CC(=O)NC3=CC=C(C=C3)C4=CN=CC=C4 [Wnt-C59] + CS(=O)(=O)CCNCc1ccc(-c2ccc3ncnc(Nc4ccc(OCc5cccc(F)c5)c(Cl)c4)c3c2)o1 [Lapatinib] (partner 2 µM)
Nature of the test: relative viability (nuclei count vs DMSO), 5 days (fraction); higher = more cells survive. In short, it runs like this: (§1)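 Lung cancer cell lines in 1536-well plates were dosed by pin tool the day after seeding, either with one drug alone or with a fixed anchor-drug dose plus five library-drug doses (not always all listed) in √10 steps. After 5 days, cells were fixed and their nuclei stained in one step (final 0.05% Triton X-100, 1% formaldehyde, 1 ug/ml Hoechst), then counted on 4× images. Relative viability is the nuclei count in treated wells divided by that in vehicle wells. Values are medians of duplicate plates.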

Compound in the test “Wnt-C59 + Trametinib”: CC1=NC=CC(=C1)C2=CC=C(C=C2)CC(=O)NC3=CC=C(C=C3)C4=CN=CC=C4 [Wnt-C59] + CC(=O)Nc1cccc(-n2c(=O)n(C3CC3)c(=O)c3c(Nc4ccc(I)cc4F)n(C)c(=O)c(C)c32)c1 [Trametinib] (partner 0.02 µM)
Described as above. In short, it runs like this:
as §1

On to UMC-11, for which the relative viability in the test with Wnt-C59 + Lapatinib (first compound 0.001 µM) came to 0.911; with Wnt-C59 + Lapatinib (first compound 0.01 µM), 0.851; with Wnt-C59 + Lapatinib (first compound 0.03162 µM) it was 1.03; with Wnt-C59 + Lapatinib (first compound 0.1 µM) it was 0.749; with Wnt-C59 + Trametinib (first compound 0.001 µM) it was 0.654; with Wnt-C59 + Trametinib (first compound 0.01 µM) it was 0.812. Further, the relative viability stood at 0.698 with Wnt-C59 + Trametinib (first compound 0.03162 µM) and 0.758 with Wnt-C59 + Trametinib (first compound 0.1 µM).
